# PubChem BioAssay AID652 (University of Pittsburgh Molecular Library Screening Center, 2007)
# pIC50: −log10 of the molar value. Active and inactive are the calls of the source. How the calls were made is not given here.
# Biological target: Gag-Pol polyprotein (Human immunodeficiency virus type 1 group M subtype B (isolate HXB2)) (UniProt P04585)
# Test: HIV-1 RT RNase H inhibitor potency, dose response, biochemical, probe assessment (AID 652)
# Settings: HIV-1 RT RNase H enzymatic assay
Compound,pIC50,IC50
Nc1c(C(=O)NCc2cccnc2)sc(=S)n1-c1ccccc1,5.65,–
C=CCSc1nc2c(cnn2-c2ccc(C)c(C)c2)c(=O)[nH]1,4.86,–
O=C1CCCC(O)=C1C(C#Cc1ccccc1)C1=C(O)CCCC1=O,5.96,–
Nc1c(S(=O)(=O)c2cccc(Cl)c2)c2nc3ccccc3nc2n1/N=C/c1ccc(O)c(O)c1,6.58,–
CN(C)c1ccc(N=Cc2c(O)n(CCC3=CCCCC3)c(=O)[nH]c2=O)cc1,5.42,–
O=C(CCSCCC(=O)NCc1ccco1)NCc1ccco1,6.02,–
CCCCCCn1c(SCC(=O)OC)nc2c1c(=O)[nH]c(=O)n2C,5.51,–
Oc1ccc(-c2nc(-c3ccc(O)c(O)c3)cs2)cc1,5.65,–
COc1ccc(C(=S)N(C)C)cc1OC,5.44,–
CCOc1cc(C2C(C#N)=C(N)SC(N)=C2C#N)ccc1OCCN1CCOCC1,4.50,–
CCOc1ccc(N2Cc3ccccc3C2)cc1,5.13,–
C=CCOC(=O)C1=C(C)NC(SCC(=O)Nc2ccc(C)c(Cl)c2)=C(C#N)C1c1ccco1 (stereo unspecified),5.37,–
N#CC1=C(N)SC(N)=C(C#N)C1c1ccnc2ccccc12,4.86,–
CC(C)Sc1nc(-c2cccs2)nc2c1c(=O)n(C)c(=O)n2C,5.27,–
O=C1C=Cc2ccccc2C1=O,5.58,–
CCCCn1c(CN2C(=O)c3ccccc3C2=O)nc2ccccc2c1=O,4.91,–
CCCCn1c(SCC(=O)OCC)nc2c1c(=O)[nH]c(=O)n2C,–,> 50 µM (inactive)

# Same assay, conditions: HIV-1 RT RNase H enzymatic assay, inhibition, at 50 µM, stronger effect = higher value
row,Compound,inhibition [%]
1,C=CCn1c(=O)c(C(=O)Nc2nnc(C)s2)c(O)c2ccccc21,84.5
2,COC(=O)c1ccc2c(=O)n(Cc3ccco3)c(SCC(=O)Nc3ccccc3Cl)nc2c1,92.2
3,CC(C)c1ccc(C2CC(=O)N3CN(C)CSC3=C2C#N)cc1 (stereo unspecified),86.9
4,CCOC(=O)c1c(C2COc3ccccc3O2)csc1NC(=O)c1ccco1 (stereo unspecified),96.6
5,CCC1CC2(C)NC(=O)c3c(sc4c3CC(C)(C)OC4)N2C1=O (stereo unspecified),82.8
6,CCOC(=O)C(C(C)=O)c1c(Br)c(O)c(O)c2c(C(=O)c3ccc(C)cc3)coc12 (stereo unspecified),86.7
7,COC(=O)c1ccc2c(=O)n(Cc3ccco3)c(SCC(=O)Nc3ccc(C)c(Cl)c3)nc2c1,92.1
8,COc1ccc(N2CCN(Cc3cc(=O)oc4cc(-c5ccccc5)c(O)cc34)CC2)cc1,96.2
9,c1ccc(N2CCN(c3nc4cc5c(cc4s3)OCO5)CC2)cc1,97.6
10,Cc1cc(NC(=O)CSc2ccc(-c3nc4cc(C)c(C)cc4[nH]3)cn2)no1,83
11,CCN1CCN(c2nc(C)nc3c2sc(=S)n3C)CC1,76.3
12,c1ccc(Cc2nn3c(Cn4nnc5ccccc54)nnc3s2)cc1,96.1
13,CC(C)Cc1cc(C(=O)Nc2sc3c(c2C#N)CCCC3)no1,94.6
14,COc1ccc(OC)c(CCNC(=O)Cn2sc3nc(C)cc(C)c3c2=O)c1,91.6
15,Nc1c(C(=O)NCc2cccnc2)sc(=S)n1-c1ccccc1,73.5
16,CC(C)(C)c1ccc(-c2nnc3sc(-c4ccncc4)nn23)cc1,96.3
17,Cc1nn2c(-c3cccc(NC(=O)CSc4nc5ccccc5o4)c3)nnc2c2ccccc12,98.2
18,Cc1sc2nc(C(C)Nc3ccccc3N3CCOCC3)[nH]c(=O)c2c1C (stereo unspecified),66.5
19,O=C1CC(c2ccco2)Cc2nc(Nc3nc(-c4ccccc4)c4ccccc4n3)ncc21 (stereo unspecified),53.7
20,CCOC(=O)c1sc(=S)n2c1[nH]c(=O)c1ccc(C(=O)OC)cc12,99.7
21,C=CCSc1nc2c(cnn2-c2ccc(C)c(C)c2)c(=O)[nH]1,88.6
22,O=C(NC1CCCCC1)c1sc(=S)n2c1[nH]c(=O)c1ccccc12,96.5

row,Compound,inhibition [%]
1,Cc1cccc(N2CCN(C(=O)Cn3sc4nc(C)cc(C)c4c3=O)CC2C)c1 (stereo unspecified),86
2,CC(Cc1ccc(O)c(O)c1)C(C)Cc1ccc(O)c(O)c1 (stereo unspecified),99
3,Cc1ccccc1OCc1nc(-c2ccc(NC(=O)c3ccc4c(c3)OCO4)cc2)no1,90.2
4,COc1ccc(S(=O)(=O)Nc2ccc(O)c3ccccc23)cc1,67.3
5,CCCCC(CC)Cn1c2nc3ccccc3nc2c2c(=N)oc(C)nc21 (stereo unspecified),95.5
6,COc1cc(N=c2ssnc2Cl)cc(OC)c1OC,78.8
7,COCCn1c(-c2ccc(-c3ccccc3Cl)o2)nc2c1c(=O)[nH]c(=O)n2CC(C)C,85
8,O=C1CCCC(O)=C1C(C#Cc1ccccc1)C1=C(O)CCCC1=O,90.9
9,COC(=O)c1ccc2c(=O)[nH]c(CN3c4ccccc4CC3C)nc2c1 (stereo unspecified),62.3
10,CN1CSC2=C(C#N)C(c3cccc(OCc4ccccc4)c3)CC(=O)N2C1 (stereo unspecified),89.7
11,COc1ccc(C2c3c(oc4ccc(Cl)cc4c3=O)C(=O)N2Cc2ccco2)cc1OC (stereo unspecified),95.9
12,Cc1cccc(OCC(=O)Nc2cccc(-c3nnc(-c4ccccc4)o3)c2)c1C,88.1
13,CCCc1cc(C(=O)Nc2sc(C)c(C)c2C(=O)OCC)no1,98
14,Cc1ccc(NC(=O)Cn2nnc(C(=O)Nc3ccc(C)c(C)c3)c2N)cc1,76.8
15,Cc1cccc(-n2c(N)c(C(=O)N3CCN(C)CC3)sc2=S)c1,41.7
16,CCOC(=O)N1CCc2c(sc3c2C(=O)NC(c2ccc(-c4ccc(Cl)cc4)o2)N3)C1 (stereo unspecified),94.3
17,Nc1c(S(=O)(=O)c2cccc(Cl)c2)c2nc3ccccc3nc2n1/N=C/c1ccc(O)c(O)c1,96.3
18,c1csc(-c2nn3c(C4COc5ccccc5O4)nnc3s2)c1 (stereo unspecified),97.1
19,COc1cc(C2CC(=O)N3CN(c4ccccc4C)CSC3=C2C#N)cc(OC)c1OC (stereo unspecified),100
20,CN(C)c1ccc(N=Cc2c(O)n(CCC3=CCCCC3)c(=O)[nH]c2=O)cc1,80.1
21,Nc1nnc(CSCc2ccc(F)cc2)s1,51.7
22,CCOC(=O)c1c(NC(=O)c2ccc(-n3cnnn3)cc2)sc2c1CCCC2,88.3
